From ChEMBL document CHEMBL4138123, “Design, synthesis and biological evaluation of novel pyrazolochalcones as potential modulators of PI3K/Akt/mTOR pathway and inducers of apoptosis in breast cancer cells” (Eur J Med Chem, 2017)

What was measured:
Type in all cases: functional
[1] = tested on: NCI-H522; assay: Cytotoxicity against human NCI-H522 cells assessed as cell growth at 0.01 uM after 48 hrs by sulforhodamine B assay relative to control; conditions: NCI-H522, 48 h, read-out: Activity
[2] = tested on: SK-MEL-5; assay: Cytotoxicity against human SK-MEL-5 cells assessed as cell growth at 1 uM after 48 hrs by sulforhodamine B assay relative to control; conditions: SK-MEL-5, 48 h, read-out: Activity
[3] = tested on: NCI-H460; assay: Cytotoxicity against human NCI-H460 cells assessed as cell growth at 100 uM after 48 hrs by sulforhodamine B assay relative to control; conditions: NCI-H460, 48 h, read-out: Activity
[4] = tested on: RPMI-8226; assay: Cytotoxicity against human RPMI8226 cells assessed as growth inhibition after 48 hrs by sulforhodamine B assay; conditions: RPMI-8226, 48 h
[5] = tested on: SN12C; assay: Cytotoxicity against human SN12C cells assessed as cell growth at 100 uM after 48 hrs by sulforhodamine B assay relative to control; conditions: read-out: Activity
[6] = tested on: HCT-116; assay: Cytotoxicity against human HCT116 cells assessed as cell growth at 10 uM after 48 hrs by sulforhodamine B assay relative to control; conditions: HCT-116, 48 h, read-out: Activity
[7] = tested on: UACC-62; assay: Cytotoxicity against human UACC62 cells assessed as cell growth at 10 uM after 48 hrs by sulforhodamine B assay relative to control; conditions: UACC-62, 48 h, read-out: Activity
[8] = tested on: DU-145; assay: Cytotoxicity against human DU145 cells assessed as cell growth at 0.01 uM after 48 hrs by sulforhodamine B assay relative to control; conditions: DU-145, 48 h, read-out: Activity
[9] = tested on: A549; assay: Cytotoxicity against human A549/ATCC cells assessed as cell growth at 100 uM after 48 hrs by sulforhodamine B assay relative to control; conditions: A549, 48 h, read-out: Activity
[10] = tested on: SK-MEL-5; assay: Cytotoxicity against human SK-MEL-5 cells assessed as cell growth at 0.1 uM after 48 hrs by sulforhodamine B assay relative to control; conditions: SK-MEL-5, 48 h, read-out: Activity
[11] = tested on: HCT-15; assay: Cytotoxicity against human HCT15 cells assessed as cell growth at 10 uM after 48 hrs by sulforhodamine B assay relative to control; conditions: HCT-15, 48 h, read-out: Activity
[12] = tested on: MDA-MB-231; assay: Cytotoxicity against human MDA-MB-231 cells assessed as cell growth at 10 uM after 48 hrs by sulforhodamine B assay relative to control; conditions: MDA-MB-231, 48 h, read-out: Activity
[13] = tested on: NCI-H23; assay: Cytotoxicity against human NCI-H23 cells assessed as cell growth at 10 uM after 48 hrs by sulforhodamine B assay relative to control; conditions: NCI-H23, 48 h, read-out: Activity
[14] = tested on: NCI-H23; assay: Cytotoxicity against human NCI-H23 cells assessed as cell growth at 0.1 uM after 48 hrs by sulforhodamine B assay relative to control; conditions: NCI-H23, 48 h, read-out: Activity
[15] = tested on: K562; assay: Cytotoxicity against human K562 cells assessed as cell growth at 0.1 uM after 48 hrs by sulforhodamine B assay relative to control; conditions: K562, 48 h, read-out: Activity
[16] = tested on: SW-620; assay: Cytotoxicity against human SW620 cells assessed as cell growth at 0.1 uM after 48 hrs by sulforhodamine B assay relative to control; conditions: SW-620, 48 h, read-out: Activity
[17] = tested on: SNB-19; assay: Cytotoxicity against human SNB19 cells assessed as growth inhibition after 48 hrs by sulforhodamine B assay; conditions: SNB-19, 48 h; for CC50: read-out: LC50 (the source's name)
[18] = tested on: SF-268; assay: Cytotoxicity against human SF268 cells assessed as cell growth at 1 uM after 48 hrs by sulforhodamine B assay relative to control; conditions: SF-268, 48 h, read-out: Activity
[19] = tested on: SW-620; assay: Cytotoxicity against human SW620 cells assessed as cell growth at 10 uM after 48 hrs by sulforhodamine B assay relative to control; conditions: SW-620, 48 h, read-out: Activity
[20] = tested on: CCRF-CEM; assay: Cytotoxicity against human CCRF-CEM cells assessed as cell growth at 10 uM after 48 hrs by sulforhodamine B assay relative to control; conditions: read-out: Activity
[21] = tested on: A549; assay: Cytotoxicity against human A549/ATCC cells assessed as cell growth at 10 uM after 48 hrs by sulforhodamine B assay relative to control; conditions: A549, 48 h, read-out: Activity
[22] = tested on: NCI-H322M; assay: Cytotoxicity against human NCI-H322M cells assessed as cell growth at 0.01 uM after 48 hrs by sulforhodamine B assay relative to control; conditions: read-out: Activity
[23] = tested on: KM12; assay: Cytotoxicity against human KM12 cells assessed as cell growth at 0.01 uM after 48 hrs by sulforhodamine B assay relative to control; conditions: KM12, 48 h, read-out: Activity
[24] = tested on: PC-3; assay: Cytotoxicity against human PC3 cells assessed as cell growth at 0.1 uM after 48 hrs by sulforhodamine B assay relative to control; conditions: PC-3, 48 h, read-out: Activity
[25] = tested on: COLO 205; assay: Cytotoxicity against human COLO205 cells assessed as cell growth at 0.1 uM after 48 hrs by sulforhodamine B assay relative to control; conditions: COLO 205, 48 h, read-out: Activity
[26] = tested on: ACHN; assay: Cytotoxicity against human ACHN cells assessed as cell growth at 10 uM after 48 hrs by sulforhodamine B assay relative to control; conditions: read-out: Activity
[27] = tested on: NCI-H522; assay: Cytotoxicity against human NCI-H522 cells assessed as cell growth at 1 uM after 48 hrs by sulforhodamine B assay relative to control; conditions: NCI-H522, 48 h, read-out: Activity
[28] = tested on: MDA-MB-468; assay: Cytotoxicity against human MDA-MB-468 cells assessed as cell growth at 10 uM after 48 hrs by sulforhodamine B assay relative to control; conditions: MDA-MB-468, 48 h, read-out: Activity
[29] = tested on: HL-60(TB); assay: Cytotoxicity against human HL-60(TB) cells assessed as cell growth at 100 uM after 48 hrs by sulforhodamine B assay relative to control; conditions: HL-60, 48 h, read-out: Activity
[30] = tested on: ACHN; assay: Cytotoxicity against human ACHN cells assessed as cell growth at 1 uM after 48 hrs by sulforhodamine B assay relative to control; conditions: read-out: Activity
[31] = tested on: BT-549; assay: Cytotoxicity against human BT549 cells assessed as cell growth at 0.1 uM after 48 hrs by sulforhodamine B assay relative to control; conditions: BT-549, 48 h, read-out: Activity
[32] = tested on: COLO 205; assay: Cytotoxicity against human COLO205 cells assessed as cell growth at 10 uM after 48 hrs by sulforhodamine B assay relative to control; conditions: COLO 205, 48 h, read-out: Activity
[33] = tested on: SK-MEL-5; assay: Cytotoxicity against human SK-MEL-5 cells assessed as growth inhibition after 48 hrs by sulforhodamine B assay; conditions: SK-MEL-5, 48 h
[34] = tested on: M14; assay: Cytotoxicity against human M14 cells assessed as cell growth at 0.01 uM after 48 hrs by sulforhodamine B assay relative to control; conditions: M14, 48 h, read-out: Activity
[35] = tested on: OVCAR-4; assay: Cytotoxicity against human OVCAR4 cells assessed as cell growth at 1 uM after 48 hrs by sulforhodamine B assay relative to control; conditions: OVCAR-4, 48 h, read-out: Activity
[36] = tested on: NCI-H23; assay: Cytotoxicity against human NCI-H23 cells assessed as cell growth at 100 uM after 48 hrs by sulforhodamine B assay relative to control; conditions: NCI-H23, 48 h, read-out: Activity

COc1cc2c(cc1OC)C(=O)/C(=C/c1cc(-c3ccc4c(c3)OCO4)n[nH]1)C2
growth at 0.01 µM [1]: 91%
growth at 1 µM [2]: 92%
growth at 100 µM [3]: -67%
GI50 [4]: 0.23 µM
LC50 [4]: 5.52 µM
TGI [4]: 0.623 µM
growth at 100 µM [5]: -96%
growth at 10 µM [6]: -75%
growth at 10 µM [7]: -96%
growth at 0.01 µM [8]: 102%
growth at 100 µM [9]: -65%
growth at 0.1 µM [10]: 93%
growth at 10 µM [11]: -69%
growth at 10 µM [12]: -87%
growth at 10 µM [13]: -63%
growth at 0.1 µM [14]: 93%
growth at 0.1 µM [15]: 94%
growth at 0.1 µM [16]: 99%
GI50 [17]: 1.55 µM
TGI [17]: 2.96 µM
CC50 [17]: 5.63 µM
growth at 1 µM [18]: 83%
growth at 10 µM [19]: -56%
growth at 10 µM [20]: -44%
growth at 10 µM [21]: -30%
growth at 0.01 µM [22]: 102%
growth at 0.01 µM [23]: 100%
growth at 0.1 µM [24]: 89%
growth at 0.1 µM [25]: 105%
growth at 10 µM [26]: -90%
growth at 1 µM [27]: -6%
growth at 10 µM [28]: -87%
growth at 100 µM [29]: -36%
growth at 1 µM [30]: 94%
growth at 0.1 µM [31]: 91%
growth at 10 µM [32]: -97%
GI50 [33]: 1.89 µM
LC50 (concentration killing 50% of cells) [33]: 5.61 µM
TGI [33]: 3.06 µM
growth at 0.01 µM [34]: 99%
growth at 1 µM [35]: 57%
growth at 100 µM [36]: -78%

COc1ccc(C(=O)/C=C/c2cc(-c3cc(OC)c(OC)c(OC)c3)n[nH]2)cc1OC
growth at 0.01 µM [1]: 83%
growth at 1 µM [2]: 91%
growth at 100 µM [3]: -65%
LC50 [4]: > 100 µM
TGI [4]: 1.11 µM
growth at 100 µM [5]: -86%
growth at 10 µM [6]: -65%
growth at 10 µM [7]: -92%
growth at 0.01 µM [8]: 104%
growth at 100 µM [9]: -78%
growth at 0.1 µM [10]: 96%
growth at 10 µM [11]: -78%
growth at 10 µM [12]: -82%
growth at 10 µM [13]: -36%
growth at 0.1 µM [14]: 94%
growth at 0.1 µM [15]: 92%
growth at 0.1 µM [16]: 99%
TGI [17]: 3.01 µM
CC50 [17]: 6.36 µM
growth at 1 µM [18]: 89%
growth at 10 µM [19]: -77%
growth at 10 µM [20]: -26%
growth at 10 µM [21]: -43%
growth at 0.01 µM [22]: 94%
growth at 0.01 µM [23]: 97%
growth at 0.1 µM [24]: 95%
growth at 0.1 µM [25]: 106%
growth at 10 µM [26]: -95%
growth at 1 µM [27]: -63%
growth at 10 µM [28]: -87%
growth at 100 µM [29]: -51%
growth at 1 µM [30]: 91%
growth at 0.1 µM [31]: 90%
growth at 10 µM [32]: -93%
LC50 (concentration killing 50% of cells) [33]: 5.59 µM
TGI [33]: 3.03 µM
growth at 0.01 µM [34]: 97%
growth at 1 µM [35]: 70%
growth at 100 µM [36]: -75%
